{"source": "patent US7288562B2", "about": "“Fluoro and sulphonylamino containing 3,6-disubstituted azabicyclo (3.1.0) hexane derivatives as muscarinic receptor antagonists” (priority 2002, dated 2007)", "key": {"M3 muscarinic receptor": {"target": "T1, M3 muscarinic receptor (Rattus norvegicus, UniProt P08483)", "T1 construct": "from tissue; host or cells: rat submandibular gland membrane homogenate", "T1 sequence (P08483 whole entry)": "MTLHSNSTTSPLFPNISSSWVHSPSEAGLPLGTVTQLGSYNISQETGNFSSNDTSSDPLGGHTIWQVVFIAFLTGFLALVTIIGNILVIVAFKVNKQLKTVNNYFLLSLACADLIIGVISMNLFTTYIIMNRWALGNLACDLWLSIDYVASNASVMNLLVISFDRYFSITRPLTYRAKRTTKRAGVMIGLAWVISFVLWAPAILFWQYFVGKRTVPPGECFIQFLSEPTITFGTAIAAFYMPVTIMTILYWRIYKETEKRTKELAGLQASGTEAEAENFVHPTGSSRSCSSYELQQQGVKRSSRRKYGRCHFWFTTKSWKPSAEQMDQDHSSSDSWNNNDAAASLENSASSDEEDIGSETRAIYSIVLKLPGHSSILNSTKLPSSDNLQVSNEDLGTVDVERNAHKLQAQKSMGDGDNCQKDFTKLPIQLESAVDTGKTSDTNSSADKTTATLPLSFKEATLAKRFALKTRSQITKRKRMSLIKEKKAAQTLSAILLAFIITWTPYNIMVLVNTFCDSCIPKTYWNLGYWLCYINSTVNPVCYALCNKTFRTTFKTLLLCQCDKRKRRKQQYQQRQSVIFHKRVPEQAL", "test": "Radioligand binding assay, [3H]-N-methylscopolamine, rat submandibular gland membranes", "details": "[3H]-NMS", "method": "(§1) The affinity of test compounds for M2 and M3 muscarinic receptor subtypes was determined by [^3H]-N-methylscopolamine binding studies using rat heart and submandibular gland respectively as described by Moriya et al., (Life Sci, 1999, 64(25):2351-2358) with minor modifications.\n(§2) Membrane preparation: Submandibular glands and heart were isolated and placed in ice cold homogenising buffer (HEPES 20 mM, 10 mM EDTA, pH 7.4) immediately after sacrifice. The tissues were homogenised in 10 volumes of homogenising buffer and the homogenate was filtered through two layers of wet gauze and filtrate was centrifuged at 500 g for 10 min. The supernatant was subsequently centrifuged at 40,000 g for 20 min. The pellet thus obtained was resuspended in same volume of assay buffer (HEPES 20 mM, EDTA 5 mM, pH 7.4) and were stored at −70° C. until the time of assay.\n(§3) Ligand binding assay: The compounds were dissolved and diluted in DMSO. The membrane homogenates (150-250 μg protein) were incubated in 250 μl of assay buffer (HEPES 20 mM, pH 7.4) at 24-25° C. for 3 h. Non-specific binding was determined in the presence of 1 μM atropine. The incubation was terminated by vacuum filtration over GF/B fiber filters(Wallac). The filters were then washed with ice cold 50 mM Tris HCl buffer (pH 7.4). The filter mats were dried and bound radioactivity retained on filters was counted. The IC50 & Kd were estimated by using the non-linear curve fitting program using G Pad Prism software. The value of inhibition constant Ki was calculated from competitive binding studies by using Cheng & Prusoff equation (Biochem Pharmacol, 1973, 22: 3099-3108), Ki=IC50/(1+L/Kd), where L is the concentration of\n(§4) [^3H]NMS used in the particular experiment."}, "M2 muscarinic receptor": {"target": "T2, M2 muscarinic receptor (Rattus norvegicus, UniProt P10980)", "T2 construct": "from tissue; host or cells: rat heart membrane homogenate", "T2 sequence (P10980 1-466)": "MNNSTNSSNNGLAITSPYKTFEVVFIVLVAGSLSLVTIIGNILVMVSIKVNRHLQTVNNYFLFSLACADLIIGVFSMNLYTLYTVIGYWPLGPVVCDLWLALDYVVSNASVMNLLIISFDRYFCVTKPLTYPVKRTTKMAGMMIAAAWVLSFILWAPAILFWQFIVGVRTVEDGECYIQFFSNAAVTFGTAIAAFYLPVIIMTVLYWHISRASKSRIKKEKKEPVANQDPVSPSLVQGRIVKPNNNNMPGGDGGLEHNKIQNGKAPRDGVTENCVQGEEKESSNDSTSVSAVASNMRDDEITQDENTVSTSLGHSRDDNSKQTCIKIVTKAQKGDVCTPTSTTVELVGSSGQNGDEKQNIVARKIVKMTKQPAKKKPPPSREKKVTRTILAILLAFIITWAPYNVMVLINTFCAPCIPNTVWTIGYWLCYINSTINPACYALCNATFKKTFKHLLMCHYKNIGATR", "test": "Radioligand binding assay, [3H]-N-methylscopolamine, rat heart membranes", "details": "[3H]-NMS", "method": "as §1, §2, §3, §4"}, "isolated rat bladder": {"system": "isolated rat bladder", "test": "Functional experiments using isolated rat bladder (carbachol-induced contraction)", "details": "isolated rat bladder strips, carbachol concentration response curve", "method": "Functional Experiments Using Isolated Rat Bladder:\nAnimals were euthanized by overdose of urethane and whole bladder was isolated and removed rapidly and placed in ice cold Tyrode buffer with the following composition (mMol/L) NaCl 137; KCl 2.7; CaCl2 1.8; MgCl2 0.1; NaHCO3 11.9; NaH2PO4 0.4; Glucose 5.55 and continuously gassed with 95% O2 and 5% CO2.\nThe bladder was cut into longitudinal strips (3 mm wide and 5-6 mm long) and mounted in 10 ml organ baths at 30° C., with one end connected to the base of the tissue holder and the other end connected to a polygraph through a force displacement transducer. Each tissue was maintained at a constant basal tension of 2 g and allowed to equilibrate for 1 hour during which the PSS was changed every 15 min. At the end of equilibration period the stabilization of the tissue contractile response was assessed with 1 μmol/L of Carbachol consecutively for 2-3 times. Subsequently a cumulative concentration response curve to carbachol (10^−9 mol/L to 3×10^−5 mol/L) was obtained. After several washes, once the baseline was achieved, cumulative concentration response curve was obtained in presence of NCE (NCE added 20 min. prior to the second CRC).\nThe contractile results were expressed as % of control E max. ED50 values were calculated by fitting a non-linear regression curve (Graph Pad Prism). pKB values were calculated by the formula pKB=−log [(molar concentration of antagonist/(dose ratio-1))]\n• dose ratio=ED50 in the presence of antagonist/ED50 in the absence of antagonist."}, "[1]": {"details": "read-out: Receptor Binding Assay M3 pKi (converted)"}, "[2]": {"details": "read-out: Receptor Binding Assay M2 pKi (converted)"}}, "note": "Where two headings read alike, the source gives them in different places."}
{"compound": "O=C(COCc1ccccc1)NC1CCC(C(O)(C(=O)NCC2C3CN(Cc4ccccc4)CC23)c2ccccc2)C1", "note": "(single isomer, unassigned) [Compound No. 8, (2R)-(1α,5α,6α)-N-[3-benzyl-3-azabicyclo[3.1.0]hexyl-6-(aminomethyl)-yl]-2-[(1R or 1S, 3R or 3S)-3-benzyloxyacetylaminocyclopentyl]-2-hydroxy-2-phenylacetamide]", "values": [{"measurement": "Ki", "setting": "M3 muscarinic receptor; [1]", "result": 34.7, "unit": "nM"}, {"measurement": "Ki", "setting": "M2 muscarinic receptor; [2]", "result": 209, "unit": "nM"}, {"measurement": "Functional Assay pKB", "setting": "isolated rat bladder", "result": "7.08 ± 0.18"}]}
{"compound": "O=C(NCC1C2CN(Cc3ccccc3)CC12)C(O)(c1ccccc1)C1CCC(F)C1", "note": "(single isomer, unassigned) [Compound No. 4, (2R or 2S)-(1α,5α,6α)-N-[3-benzyl-3-azabicyclo[3.1.0]hexyl-6-(aminomethyl)-yl]-2-[(1R or 1S, 3R or 3S)-3-fluorocyclopentyl]-2-hydroxy-2-phenyl acetamide]", "values": [{"measurement": "Ki", "setting": "M3 muscarinic receptor; [1]", "result": 5.89, "unit": "nM"}, {"measurement": "Ki", "setting": "M2 muscarinic receptor; [2]", "result": 138, "unit": "nM"}, {"measurement": "Functional Assay pKB", "setting": "isolated rat bladder", "result": "8.33 ± 0.15"}]}
{"compound": "O=C(NC[C@@H]1[C@H]2CN(Cc3ccccc3)C[C@@H]12)[C@](O)(c1ccccc1)C1CCC(NS(=O)(=O)c2ccc(Br)cc2)C1", "note": "(stereo partly drawn) [Compound No. 10, (2R)-(1α,5α,6α)-N-[3-benzyl-3-azabicyclo[3.1.0]hexyl-6-(aminomethyl)-yl]-2-[(1R or 1S, 3R or 3S)-3-(4-bromophenyl)sulphonylaminocyclopentyl]-2-hydroxy-2-phenylacetamide]", "values": [{"measurement": "Ki", "setting": "M3 muscarinic receptor; Receptor Binding Assay M3 pKi", "result": 129, "unit": "nM"}, {"measurement": "Ki", "setting": "M2 muscarinic receptor; Receptor Binding Assay M2 pKi", "result": "> 1000", "unit": "nM"}]}
{"compound": "O=C(NC[C@@H]1[C@H]2CN(Cc3ccccc3)C[C@@H]12)[C@](O)(c1ccccc1)C1CCC(F)(F)C1", "note": "(single isomer, unassigned) [Compound No. 1B, (2R)-(1α,5α,6α)-N-[3-benzyl-3-azabicyclo[3.1.0]hexyl-6-(aminomethyl)-yl]-2-[(1R or 1S)-3,3-difluorocyclopentyl]-2-hydroxy-2-phenylacetamide]", "values": [{"measurement": "Ki", "setting": "M3 muscarinic receptor; [1]", "result": 6.17, "unit": "nM"}, {"measurement": "Ki", "setting": "M2 muscarinic receptor; [2]", "result": 229, "unit": "nM"}, {"measurement": "Functional Assay pKB", "setting": "isolated rat bladder", "result": "8.98 ± 0.06"}]}
{"compound": "O=C(Cc1ccccc1)NC1CCC([C@](O)(C(=O)NC[C@@H]2[C@H]3CN(Cc4ccccc4)C[C@@H]23)c2ccccc2)C1", "note": "(stereo partly drawn) [Compound No. 5, (2R)-(1α,5α,6α)-N-[3-benzyl-3-azabicyclo[3.1.0]hexyl-6-(aminomethyl)-yl]-2-[(1R or 1S, 3R or 3S)-3-phenylacetylaminocyclopentyl]-2-hydroxy-2-phenylacetamide]", "values": [{"measurement": "Ki", "setting": "M3 muscarinic receptor; [1]", "result": 39.8, "unit": "nM"}, {"measurement": "Ki", "setting": "M2 muscarinic receptor; [2]", "result": 832, "unit": "nM"}, {"measurement": "Functional Assay pKB", "setting": "isolated rat bladder", "result": "7.07 ± 0.11"}]}
{"compound": "O=C(NCC1C2CN(Cc3ccccc3)CC12)C(O)(c1ccccc1)C1CCC(NS(=O)(=O)c2ccc([N+](=O)[O-])cc2)C1", "note": "(single isomer, unassigned) [Compound No. 6, (2R)-(1α,5α,6α)-N-[3-benzyl-3-azabicyclo[3.1.0]hexyl-6-(aminomethyl)-yl]-2-[(1R or 1S, 3R or 3S)-3-(4-nitrophenyl)sulphonylaminocyclopentyl]-2-hydroxy-2-phenylacetamide]", "values": [{"measurement": "Ki", "setting": "M3 muscarinic receptor; Receptor Binding Assay M3 pKi", "result": 21.9, "unit": "nM"}, {"measurement": "Ki", "setting": "M2 muscarinic receptor; Receptor Binding Assay M2 pKi", "result": "> 1580", "unit": "nM"}, {"measurement": "Functional Assay pKB", "setting": "isolated rat bladder", "result": "7.21 ± 0.20"}]}
{"compound": "O=C(NC[C@@H]1[C@H]2CN(Cc3ccccc3)C[C@@H]12)[C@](O)(c1ccccc1)C1CCC(F)(F)C1", "note": "(single isomer, unassigned) [Compound No. 1A, (2R)-(1α,5α,6α)-N-[3-benzyl-3-azabicyclo[3.1.0]hexyl-6-(aminomethyl)-yl]-2-[(1R or 1S)-3,3-difluorocyclopentyl]-2-hydroxy-2-phenylacetamide]", "values": [{"measurement": "Ki", "setting": "M3 muscarinic receptor; [1]", "result": 5.62, "unit": "nM"}, {"measurement": "Ki", "setting": "M2 muscarinic receptor; [2]", "result": 135, "unit": "nM"}, {"measurement": "Functional Assay pKB", "setting": "isolated rat bladder", "result": "9.1 ± 0.2"}]}
{"compound": "COc1ccc(S(=O)(=O)NC2CCC([C@](O)(C(=O)NC[C@@H]3[C@H]4CN(Cc5ccccc5)C[C@@H]34)c3ccccc3)C2)cc1", "note": "(stereo partly drawn) [Compound No. 9, (2R)-(1α,5α,6α)-N-[3-benzyl-3-azabicyclo[3.1.0]hexyl-6-(aminomethyl)-yl]-2-[(1R or 1S, 3R or 3S)-3-(4-methoxyphenyl)sulphonylaminocyclopentyl]-2-hydroxy-2-phenylacetamide]", "values": [{"measurement": "Ki", "setting": "M3 muscarinic receptor; Receptor Binding Assay M3 pKi", "result": 204, "unit": "nM"}, {"measurement": "Ki", "setting": "M2 muscarinic receptor; Receptor Binding Assay M2 pKi", "result": "> 1000", "unit": "nM"}]}
{"compound": "O=C(NCC1C2CN(Cc3ccccc3)CC12)C(O)(c1ccccc1)C1CCC(F)(F)C1", "note": "(mixture of isomers) [Compound No. 3, (2Ror 2S)-(1α,5α,6α)-N-[3-benzyl-3-azabicyclo[3.1.0]hexyl-6-(aminomethyl)-yl]-2-[(1R or 1S)-3,3-difluorocyclopentyl]-2-hydroxy-2-phenyl acetamide]", "values": [{"measurement": "Ki", "setting": "M3 muscarinic receptor; [1]", "result": 6.31, "unit": "nM"}, {"measurement": "Ki", "setting": "M2 muscarinic receptor; [2]", "result": 251, "unit": "nM"}, {"measurement": "Functional Assay pKB", "setting": "isolated rat bladder", "result": "8.55 ± 0.25"}]}
{"compound": "O=C(NC[C@@H]1[C@H]2CN(Cc3ccccc3)C[C@@H]12)[C@](O)(c1ccccc1)C1CCC(NS(=O)(=O)c2ccccc2)C1", "note": "(stereo partly drawn) [Compound No. 7, (2R)-(1α,5α,6α)-N-[3-benzyl-3-azabicyclo[3.1.0]hexyl-6-(aminomethyl)-yl]-2-[(1R or 1S, 3R or 3S)-3-phenylsulphonylaminocyclopentyl]-2-hydroxy-2-phenylacetamide]", "values": [{"measurement": "Ki", "setting": "M3 muscarinic receptor; Receptor Binding Assay M3 pKi", "result": 50.1, "unit": "nM"}, {"measurement": "Ki", "setting": "M2 muscarinic receptor; Receptor Binding Assay M2 pKi", "result": "> 1580", "unit": "nM"}, {"measurement": "Functional Assay pKB", "setting": "isolated rat bladder", "result": "6.89 ± 0.29"}]}
{"compound": "O=C(NC[C@@H]1[C@H]2CN(Cc3ccccc3)C[C@@H]12)[C@](O)(c1ccccc1)C1CCC(F)C1", "note": "(stereo partly drawn) [Compound No. 2, (2R(1α,5α,6α)-N-[3-benzyl-3-azabicyclo[3.1.0]hexyl-6-(aminomethyl)-yl]-2-[(1R or 1S, 3R or 3S)-3-fluorocyclopentyl]-2-hydroxy-2-phenylacetamide]", "values": [{"measurement": "Ki", "setting": "M3 muscarinic receptor; [1]", "result": 3.98, "unit": "nM"}, {"measurement": "Ki", "setting": "M2 muscarinic receptor; [2]", "result": 126, "unit": "nM"}, {"measurement": "Functional Assay pKB", "setting": "isolated rat bladder", "result": "8.84 ± 0.07"}]}
